{"source": "patent US20240228481A1", "about": "“NOVEL SULFONAMIDE SERIES OF QR2 INHIBITORS TO TACKLE OXIDATIVE STRESS AND COGNITIVE DECLINE” (CARMEL HAIFA UNIVERSITY ECONOMIC CORPORATION LTD., priority 2021, published 2024)", "key": {"[1]": {"target": "T1, QR1 (NQO1) (Homo sapiens, UniProt P15559)", "T1 construct": "purchased Sigma-Aldrich", "T1 sequence (P15559 whole entry)": "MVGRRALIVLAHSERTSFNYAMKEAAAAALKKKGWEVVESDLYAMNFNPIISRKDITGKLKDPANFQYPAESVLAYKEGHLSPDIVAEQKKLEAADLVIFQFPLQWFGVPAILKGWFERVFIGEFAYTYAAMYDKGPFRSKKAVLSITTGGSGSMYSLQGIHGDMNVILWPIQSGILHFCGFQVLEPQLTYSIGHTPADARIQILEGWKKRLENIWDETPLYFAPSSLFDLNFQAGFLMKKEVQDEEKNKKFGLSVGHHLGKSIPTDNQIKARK", "assay": "Selectivity assay with QR1 in place of QR2, fluorescence readout", "format": "biochemical"}, "[2]": {"tested_on": "HEK293T cells", "assay": "XTT cell viability assay", "format": "cell-based", "details": "3 h incubation, 20 nM-20 μM", "procedure": "HEK293FT cells were cultured with penicillin-streptomycin antibiotics in Invitrogen DMEM (Thermo Fisher Scientific) with 10% fetal bovine serum and L-glutamine and grown to 80-90% confluence in 100 mm plates, while being passaged every 2-3 days. For the XTT assay (Biological Industries), cells were then collected, centrifuged, and resuspended in fresh minimum essential medium, and seeded at 50,000 cells/well in 96-well, poly-L-lysine-coated Nunc black, clear flat-bottomed plates (Thermo Fisher Scientific). The next day, the cells were treated with increasing doses of QR2 inhibitors or vehicle for 3 h, and the XTT assay was then carried out as according to the manufacturer's instructions."}, "[3]": {"tested_on": "5×FAD mice", "assay": "Open field in 5×FAD mice", "format": "in vivo, mouse", "procedure": "Mice were individually placed within a cage and taken to a dimly lit room containing an open field arena 50×50 cm in size. They were given 10 min prior to being placed within the arena, where for a period of 5 min they were allowed to explore. Two weeks later, this was repeated. […] The floor was either white or black, depending on mouse coat color, to allow automatic analysis of movement parameters, apart from rearing which was manually counted."}, "[4]": {"target": "T2, QR2 (Homo sapiens, UniProt P16083)", "T2 sequence (P16083 1-231)": "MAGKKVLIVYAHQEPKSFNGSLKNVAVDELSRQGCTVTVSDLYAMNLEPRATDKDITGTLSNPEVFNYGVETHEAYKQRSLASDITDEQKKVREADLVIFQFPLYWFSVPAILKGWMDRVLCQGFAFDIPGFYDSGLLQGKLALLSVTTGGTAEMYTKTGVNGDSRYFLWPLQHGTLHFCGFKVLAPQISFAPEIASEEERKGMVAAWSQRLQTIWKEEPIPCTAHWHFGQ", "assay": "QR2 enzymatic activity assay (menadione/BNAH), fluorescence readout", "format": "biochemical", "parameters": "purchased Sigma-Aldrich"}, "[5]": {"tested_on": "THLE-2 cells", "assay": "Cell toxicity assay (ATP depletion, CellTiter Glo)", "details": "72 h incubation, CellTiter Glo", "description": "THLE-2 (CRL-2706™) were grown in the BEGM Bullet Kit (CC-3170) from Lonza. Besides the additives contained in the kit, the medium was further supplemented with 5 ng/mL EGF (Sigma), 70 ng/mL phosphoethanolamine (Sigma) and 10% FBS (Biological Industries). The plates for the THLE-2 needed to be pre-coated with a mixture of 0.01 mg/mL fibronectin, 0.05 mg/mL of PureCol™ EZ Gel Solution (Sigma) and 0.01 mg/mL of BSA dissolved in BEBM medium (Lonza). The coating medium was aspirated before seeding.\nTHLE-2 cells were exposed to the compounds in a 9-point, 2-fold dilution dose response series with a 100 μM as upper limit, for 72 h. Following the 72 h of exposure to the test compounds, cell viability was determined by measuring the concentration of cellular ATP (CellTiter Glo, Promega). The luminescence signal was measured on a Pherastar FS multi-mode plate reader (BMG Labtech). Each data point was tested in a triplicate.\nFirst, toxicity was assessed in an ATP depletion assay, using THLE-2 cells following a 72 h exposure to a dose response of each of the tested compounds."}}, "note": "Values joined by “and” are separate entries in the source; they are usually repeats but may differ in a detail not shown here. Identical values can stand only once. Counter-ions that a name gives are not always drawn."}
{"smiles": "Cc1ccc(-c2cn3cccc(C)c3n2)cc1S(=O)(=O)N1CCNCC1", "note": "[YB-537, 8-methyl-2-(4-methyl-3-(piperazin-1-ylsulfonyl)phenyl)imidazo[1,2-a]pyridine hydrochloride]", "values": [{"measurement": "IC50", "setting": "[1]", "result": 18.4, "unit": "µM"}, {"measurement": "toxicity in XTT assay", "setting": "[2]", "result": "no toxicity"}, {"measurement": "average velocity", "setting": "[3]; 5×FAD both sexes", "result": "10.9 ± 0.800", "unit": "cm/s"}, {"measurement": "hind-limb rearing frequency", "setting": "[3]; 5×FAD both sexes", "result": "35.72±3.292"}, {"measurement": "maximum movement bout duration", "setting": "[3]; 5×FAD both sexes", "result": "8.061 ± 1.322", "unit": "s"}, {"measurement": "meandering", "setting": "[3]; 5×FAD both sexes", "result": "733.4±42.8", "unit": "deg/cm"}, {"measurement": "proportion of time moving", "setting": "[3]; 5×FAD both sexes", "result": "81.44±1.134", "unit": "%"}, {"measurement": "total distance traveled", "setting": "[3]; 5×FAD both sexes", "result": "3244±237.9", "unit": "cm"}, {"measurement": "total movement duration", "setting": "[3]; 5×FAD both sexes", "result": "244.3 ± 3.402", "unit": "s"}, {"measurement": "average velocity", "setting": "[3]; 5×FAD females", "result": "12.03 ± 1.625", "unit": "cm/s"}, {"measurement": "hind-limb rearing frequency", "setting": "[3]; 5×FAD females", "result": "35.29±4.894"}, {"measurement": "maximum movement bout duration", "setting": "[3]; 5×FAD females", "result": "9.677 ± 3.012", "unit": "s"}, {"measurement": "meandering", "setting": "[3]; 5×FAD females", "result": "696.3±65.26", "unit": "deg/cm"}, {"measurement": "proportion of time moving", "setting": "[3]; 5×FAD females", "result": "81.84±1.856", "unit": "%"}, {"measurement": "total distance traveled", "setting": "[3]; 5×FAD females", "result": "3581±484.5", "unit": "cm"}, {"measurement": "total movement duration", "setting": "[3]; 5×FAD females", "result": "245.5 ± 5.568", "unit": "s"}, {"measurement": "average velocity", "setting": "[3]; 5×FAD males", "result": "10.01 ± 0.611", "unit": "cm/s"}, {"measurement": "hind-limb rearing frequency", "setting": "[3]; 5×FAD males", "result": "36.06±4.703"}, {"measurement": "maximum movement bout duration", "setting": "[3]; 5×FAD males", "result": 6.804, "unit": "s"}, {"measurement": "meandering", "setting": "[3]; 5×FAD males", "result": "762.2±58.17", "unit": "deg/cm"}, {"measurement": "proportion of time moving", "setting": "[3]; 5×FAD males", "result": "81.13±1.5", "unit": "%"}, {"measurement": "total distance traveled", "setting": "[3]; 5×FAD males", "result": "2983±179.3", "unit": "cm"}, {"measurement": "total movement duration", "setting": "[3]; 5×FAD males", "result": "243.4 ± 4.5", "unit": "s"}, {"measurement": "IC50", "setting": "[4]", "result": 0.03, "unit": "µM"}, {"measurement": "median lethal dose (LD50) in THLE cells", "setting": "[5]", "result": "> 100", "unit": "µM"}]}
{"smiles": "Cc1cccn2cc(-c3cccc(S(=O)(=O)N4CCC(C)CC4)c3)nc12", "note": "[YB-800]", "values": [{"measurement": "IC50", "setting": "[1]", "result": "> 9.99", "unit": "µM"}, {"measurement": "toxicity in XTT assay", "setting": "[2]", "result": "no toxicity"}, {"measurement": "IC50", "setting": "[4]", "result": 0.03, "unit": "µM"}, {"measurement": "median lethal dose (LD50) in THLE cells", "setting": "[5]", "result": "78.4 µM and 78.401 µM"}]}
